Reference: patent US12447135B2 (University of South Florida, priority 2021, dated 2025)
“Also recorded” adds a separate entry of the source.

Tests used:
FFAR2 signaling [1] = test: Western blot of phospho-ERK1/2 in SK-N-SH cells (FFAR2 signal activation); format: cell-based, human; settings: 10 μM, 30 min
Experimental: To determine the FFAR2 signal activating property of selected compounds, SK-N-SH cells were treated with 10 μM of shortlisted compounds for 30 min at 37° C. and harvested for total protein extraction. […] After sonication, cell extracts were centrifuged at 8,000×g for 10 min at 4° C., and the supernatant was separated in a fresh tube. The total protein concentration of the supernatant was measured using a BCA protein assay kit. An equal amount of total protein (45 μg) from each sample was dissolved in loading buffer and loaded in 4% stacking gel and 10% separating SDS-PAGE gel and resolved at 100 V. Proteins were transferred on a 0.22 μm PVDF membrane and blots were developed with anti-ERK1/2, anti-phosphoERK1/2, ubiquitin (P4D1), and Aβ (6E10) primary antibodies followed by their secondary antibodies and bands were visualized using the Pierce™ Fast Western Blot Kit, ECL Substrate acquired using Syngene Pxi. Band densities were also quantified using NIH ImageJ software. β-actin was used as an internal control.

FFAR2 signaling [2] = test: Intracellular calcium assay in SK-N-SH cells; format: cell-based, human; settings: 10 μM
Experimental: FFAR2 signaling activation increases intracellular calcium (Falomir-Lockhart et al., 2019). To further determine the activation potential of selected compounds for this signaling, we plated the SK-N-SH cells (1.25×10^3 cells per well) into a dark 96-well plate for 24 h. […] Also, 0.01 M EDTA (Sigma) and […] carbachol were used as negative and additional positive controls, respectively. After 15 min, the cells were treated with […] Direct™ calcium reagent along with […] probenecid and further incubated at 37° C. for 30 min. The fluorescence was measured with excitation at 494 nm and emission at 516 nm using a microplate reader.

C. elegans CL4176 = test: Paralysis assay in C. elegans CL4176; format: in vivo; settings: CL4176 worms, 10 μM, vs non-treated controls
Experimental: For paralysis assays, synchronized eggs of CL4176 were kept at 16° C. for 48 h, and the worms were transferred onto NGM plates. […] Counting was performed at 2 h intervals, typically after 14 h, at 23° C., and until the last worm became paralyzed. […] Each C. elegans experiment was conducted with at least 100 worms.

[3] = tested on: C. elegans CL2355 and CL2122; test: Chemotaxis activity in C. elegans; format: in vivo; settings: 10 μg/ml
Experimental: Then the worms were washed twice with S-Basal media and transferred to an NGM plate without E. coli OP50. These plates were divided into four equal sectors, with 1 μl of 0.1% benzaldehyde as an odorant and 1 μl of 1 M sodium azide as an anesthetic to arrest the worms upon reaching the quadrant were added to the original spot. On the opposite side of the attractant, a 1 μl drop of sodium azide and 1 μl of control odorant (100% ethanol) were added onto the NGM agar plate. Around 40-45 worms were placed in the center of each plate, incubated at room temperature for 1 h, and transferred to 4° C. overnight. The chemotaxis index (CI) was scored using the following formula: (number of worms at the attractant location […])/total number of worms on the plate ([…] et al., 2013).

SK-N-SH cells [4] = test: Total protein ubiquitination, western blot (P4D1); format: cell-based, human
Experimental: To determine the FFAR2 signal activating property of selected compounds, SK-N-SH cells were treated with 10 μM of shortlisted compounds for 30 min at 37° C. and harvested for total protein extraction. Cells were harvested after 30 min of incubation because ERK1/2 phosphorylation upon FFAR2 activation is a quick event (Jiao et al., 2002; Bhattacharjee et al., 2010). Total protein from the cells was extracted using a lysis buffer [consisting of 10 mmol/L Tris (pH 7.6), 150 mmol/L NaCl, 10 mmol/L Sodium orthovanadate, 10 mmol/L Sodium Pyrophosphate, 100 mmol/L Sodium fluoride, 1 mmol/L EDTA, 1 mmol/L EGTA, 1% Triton X-100, 0.5% NP-40 and a cocktail of protease inhibitors (Roche); Yadav et al., 2011, 2017; Ahmadi et al., 2019, 2020a]. After sonication, cell extracts were centrifuged at 8,000×g for 10 min at 4° C., and the supernatant was separated in a fresh tube. The total protein concentration of the supernatant was measured using a BCA protein assay kit. […] Band densities were also quantified using NIH ImageJ software. β-actin was used as an internal control.

proteasome [5] = test: Proteasome activity assay in SK-N-SH cells; format: cell-based, human
Experimental: (§1) The CL2006 strain, SK-N-SH cells, and brain tissues were sonicated in a lysis buffer (150 mM NaCl, 50 mM HEPES, 2 mM DTT, 20 mM NaF, 5 mM EDTA, 2.5 mM sodium pyrophosphate, 1 mM sodium orthovanadate, and 1 mM α-glycerophosphoric acid) and then centrifuged at 15,000 g at 4° C. for 15 min. Total protein was assayed using BCA kit and 20 μg protein was mixed with 140 μM suc-leu-leu-val-tyr-7-amino-4-methylcou-marin (AMC) in a proteasome activity assay buffer (150 mM NaCl, 50 mM HEPES [pH 7.4], 5 mM ATP, and 5 mM EDTA), and then the fluorescence (excitation 380 nm and emission 460 nm) was measured every 10 min over 3 h using a microplate reader. The assay was performed with and without the proteasome inhibitor MG132 (10 μM).

proteasome [6] = test: Proteasome activity assay in C. elegans; format: in vivo; settings: C. elegans (CL2006)
Experimental: as §1

proteasome [7] = test: Proteasome activity assay in brain of APP/PS1 mice; format: in vivo; settings: 80 mg/kg daily oral gavage, 3 months
Experimental: Brains were collected and immediately homogenized in proteasome lysis buffer and proteasome activity was measured as described below. All the animal procedures and experiments were approved by the institutional animal care and use committee (IACUC) of the Wake Forest School of Medicine and the University of South Florida.
as §1

SK-N-SH cells [8] = test: Senescence β-galactosidase staining; format: cell-based, human; settings: Aβ-treated cells, Fenchol
Experimental: After overnight incubation, Aβ 25-32 (25 μM) peptide was added to the cells for 4 h. The Senescence β-Galactosidase Staining Kit (Cell Signaling, USA) was used for the detection of the expression of β-galactosidase activity, following the manufacturer's instructions.

`CC12CCC(C1)C(C)(C)C2O` (stereo not shown) [Fenchol] was tested, and the “descending order of phospho-ERK1/2 levels” value (FFAR2 signaling [1]) was “Fenchol>Octopamine>Carvamenthenol>Camphene>Pentanone>Synephrine>Leucinamide>Carene>α-Terpineol>Breneol>L-Fenchone>D-Fenchone>Norpseudoephedrine HCl”, the “levels of phospho-ERK1/2 proteins” value (FFAR2 signaling [1]; vs rest of selected compounds) was “highest in Fenchol and comparable to acetate” and the “increase in intracellular calcium levels” value (FFAR2 signaling [2]) was “highest increase”. The paralytic attacks (C. elegans CL4176) was “decreased”, the “memory behavior / chemotaxis index” value ([3]; CL2355 worms overexpressing human Aβ) was “significantly higher; also recorded: preserved” and the chemotaxis index ([3]; control CL2122 strain) was “normal effects”. The protein ubiquitinylation (SK-N-SH cells [4]) was “did not change”, the proteasomal activity (proteasome [5]) was “significantly increased” and the “proteasome activity in cells also treated with Aβ” value (proteasome [5]; Fenchol plus Aβ) was “higher”. For the same molecule, the proteasomal activity (proteasome [6]) was “significantly increased”, the proteasomal activity (proteasome [7]; APP/PS1 mice cortex) was “significantly increased” and the proteasomal activity (proteasome [7]; APP/PS1 mice hippocampus) was “significantly increased”. The “number of senescent neuronal cells” value (SK-N-SH cells [8]) was “significantly reduced”.
